Measurements: US11370757B2, “Photocleavable nitroindoline-based crosslinkers” (priority 2017, dated 2022)
*1 amine or outer side, *2 acyl side, *3 side chain or, on linkers, in order; H or OH if unused. Where a SMILES comes first, the peptide text is derived from it. [ ]: non-standard residue; d: D form. X1 = O=C(c1cc2c(c([N+](=O)[O-])c1)N([*:1])CC2)[*:2]; Hyp = O=C(O)[C@@H]1C[C@@H](O)CN1

Tests used:
[1] = Two-photon photolysis followed by fluorescence decay under a femtosecond laser at 710 nm; type: physicochemical; conditions: 710 nm femtosecond laser, 100 to 200 mW; film/gel on microscope slide; slope 2 = two-photon process
Excerpt: Two-photon microscope. The details of the in-housed developed two-photon microscope was previously described (Acosta et al., (2014) Biomed. Opt. Express 5, 3990-4001). In summary the light source is a mode-locked Ti:Sapphire laser (Maitai H P, 690-1040 nm, 100 fs, 80 MHz, Newport, Santa Clara, Calif.). The inventors have used 710 nm light to achieve two-photon excitation of N-acyl-nitroindoline. The home-built x-y scanner (polygon, galvanometer) can achieve 30 frames/s scanning rate. The laser power at the sample site is varied by rotating a half-wave plate in front of a polarizer. The fluorescence signal from the sample are detected in three spectral channels with photomultiplier tubes (PMTs): red (570-616 nm), green (500-550 nm), and blue (417-477 nm). […]
Several spots within the sample were irradiated under the two-photon microscope using 710 nm light with varying excitation laser output powers ranging from 100 to 200 mW with increments of 25 mW. […] Therefore, as the photolysis reaction progresses, the fluorescent peptide 1 is consumed, and consequentially a decrease in average fluorescence intensity at the irradiation site is observed. For each irradiated spot, a time series of fluorescence images was recorded at every minute to track the fluorescence intensity decay throughout the photo induced reaction process (FIG. 4a-4d). […]

[2] = type: physicochemical
Experimental: Circular Dichroism (CD) of peptide 1 and thermal stability measurements. Far-UV CD studies were conducted to study the secondary structure of peptide 1. The measurements were carried out using a 20 μM solution of the lyophilized peptide 1 in 15 mM NaCl and 10 mM Na/K buffer (pH 6.8). The sample was placed into a quartz cuvette of 1 mm path length (Jasco) and heated from 20° C.-70° C. to characterize its thermal stability. At each temperature, the sample was equilibrated for 4 min prior measurement of the spectrum. CD scans were performed at a range from 196-240 nm with three accumulations of data at each temperature to improve the S/N ratio. Each spectrum underwent 11 point Savitzky-Golay smoothing to minimize high frequency noise. The experimentally estimated ellipticities (Gobs) were converted to mean molar ellipticity [θ] using the formula: [θ]=(θobs)/ncl where l is the path length of the cuvette; c is the concentration of the peptide, and n is the number of […] in the peptide.

[3] = test system: human mesenchymal stem cells; type: cell-based
Excerpt: Culture and passaging of human Mesenchymal Stem Cells (MSC). Human adipose derived mesenchymal stem cells were obtained from Lonza at passage=3 (Lonza, Allendale, N.J., USA) and cultured according to manufacturer's recommendations. Certification was obtained and kept in file to ensure that the purchased human MSC (Lonza) was verified to be of the correct lineage and uncontaminated by other cell types or organisms. For the human MSC culture, a complete growth medium (Lonza) specifically MSCGM human Mesenchymal Stem Cell (HMSC) growth BulletKit™ Medium (Lonza) was used for maintaining the mesenchymal stem cells in an undifferentiated state. This medium is referred to as complete growth medium for HMSC here onwards. Prior to cell seeding, T-75 culture flasks were coated with 0.1% gelatin (Sigma Aldrich, St. Louis, Mo., USA) and incubated (37° C., 1 h). After this, the cell suspension in complete culture medium was transferred to a gelatin coated T-75 flask and incubated for 1 h (37° C., 5% CO2 and 95% RH). Prior to cell culture, the gelatin solution used for coating of the flasks was aspirated. After 70% confluency in culture was attained, cells were trypsizined and passaged for further experiments. […] Following this, cells were seeded atop this layer and cultured for 24 hours after which they were imaged using fluorescence microscopy (Zeiss Axiovision).

Row | SMILES | slope of the regression line in the double-log plot of reaction rate vs. laser intensity [1] | stability of the structure at physiological temperature [2] | cytotoxicity to cultured mesenchymal stem cells [3]
1 | O=C(NCC(=O)N1CCc2cc(Br)cc([N+](=O)[O-])c21)OCC1c2ccccc2-c2ccccc21 [compound 13, N-Fmoc-glycyl-5-bromo-7-nitroindoline] | 1.996 | – | –
2 | NC(=O)CNC(=O)[C@@H]1CCCN1C(=O)[C@@H]1C[C@@H](O)CN1C(=O)CNC(=O)[C@@H]1CCCN1C(=O)[C@@H]1CCCN1C(=O)c1cc2c(c([N+](=O)[O-])c1)N(C(=O)CNC(=O)[C@@H]1CCCN1C(=O)[C@@H]1C[C@@H](O)CN1C(=O)CNC(=O)[C@@H]1CCCN1C(=O)[C@@H]1CCCN1C(=O)c1cc3c(c([N+](=O)[O-])c1)N(C(=O)CNC(=O)[C@@H]1CCCN1C(=O)[C@@H]1C[C@@H](O)CN1C(=O)CNC(=O)[C@@H]1CCCN1C(=O)[C@@H]1CCCN1C(=O)c1cc4c(c([N+](=O)[O-])c1)N(C(=O)CNC(=O)[C@@H]1CCCN1C(=O)[C@@H]1C[C@@H](O)CN1C(=O)CNC(=O)[C@@H]1CCCN1C(=O)[C@@H]1CCCN1C(=O)c1cc5c(c([N+](=O)[O-])c1)N(C(=O)CNC(=O)[C@@H]1CCCN1C(=O)[C@@H]1C[C@@H](O)CN1C(=O)CNC(=O)[C@@H]1CCCN1C(=O)[C@@H]1CCCN1)CC5)CC4)CC3)CC2 [peptide 1] (H-PPG[Hyp]PG[X1]PPG[Hyp]PG[X1]PPG[Hyp]PG[X1]PPG[Hyp]PG[X1]PPG[Hyp]PG-NH2) | – | very stable | not cytotoxic
